Data: the NIST ThermoML archive (doi:10.1016/j.jct.2012.11.026)

Experiments:
[1] = Solid-liquid equilibrium temperature; conditions: Crystal, visual observation
[2] = Liquid-liquid equilibrium temperature; conditions: Nematic liquid crystal, visual observation

CCCCCOc1ccc(-c2ccc(C#N)cc2)cc1 [4'-pentoxy-4-cyanobiphenyl]
Conditions | Liquid-liquid equilibrium temperature, [2] [K] | Solid-liquid equilibrium temperature, [1] [K]
399 kPa | 341.58 | 326.84
1399 kPa | 341.96 | 327.21
2400 kPa | 342.38 | 327.52
3001 kPa | – | 327.72
3400 kPa | – | 327.86
3401 kPa | 342.75 | –
3901 kPa | 342.91 | –
4401 kPa | 343.13 | 328.2
4902 kPa | 343.32 | –
5401 kPa | – | 328.54
5402 kPa | 343.51 | –
6402 kPa | – | 328.84
6403 kPa | 343.9 | –
7403 kPa | – | 329.23
7404 kPa | 344.3 | –
8403 kPa | – | 329.55
8404 kPa | 344.7 | –
9405 kPa | 345.1 | 329.86
10005 kPa | 345.33 | 330.08
